Data: ChEMBL document CHEMBL3885881, “DrugMatrix”

Organism: Rattus norvegicus
Experiment: DrugMatrix - Regimen: Daily Repeat
Type: toxicity, organism-based, Sprague-Dawley
Set-up: regimen Daily Repeat, gender Male, age 6-8 weeks
Conditions: in vivo, po, 490 mg/kg, route oral GAVAGE, dose level High, vehicle .5 % CMC; for ABSOLUTE BASOPHIL / ABSOLUTE EOSINOPHIL / ABSOLUTE LYMPHOCYTE / ABSOLUTE SEGMENTED NEUTROPHIL / BASOPHIL / EOSINOPHIL / ERYTHROCYTE COUNT / HEMATOCRIT / HEMOGLOBIN / LEUKOCYTE COUNT / LYMPHOCYTE / MEAN CORPUSCULAR HEMOGLOBIN / MEAN CORPUSCULAR HEMOGLOBIN CONCENTRATION / MEAN CORPUSCULAR VOLUME / MONOCYTE / NEUTROPHIL / NUCLEATED RED BLOOD CELLS / PLATELET COUNT: tissue Blood; for ALANINE AMINOTRANSFERASE / ASPARTATE AMINOTRANSFERASE / BLOOD UREA NITROGEN / CARBON DIOXIDE / CHLORIDE / CHOLESTEROL / CREATINE PHOSPHOKINASE / CREATININE / GLUCOSE / LACTATE DEHYDROGENASE / LIPASE / PHOSPHORUS / POTASSIUM / SODIUM / TOTAL BILIRUBIN / TOTAL PROTEIN / URIC ACID: tissue Plasma

## NC(=O)N1c2ccccc2C=Cc2ccccc21 [CARBAMAZEPINE]
72 h, time 3 day
  ABSOLUTE BASOPHIL: 0 CELLS/uL
  ABSOLUTE EOSINOPHIL: 197 CELLS/uL
  ABSOLUTE LYMPHOCYTE: 13021 CELLS/uL
  ABSOLUTE SEGMENTED NEUTROPHIL: 740.67 CELLS/uL
  BASOPHIL: 0%
  EOSINOPHIL: 1%
  ERYTHROCYTE COUNT: 6.01 x10E6/uL
  HEMATOCRIT: 37.5%
  HEMOGLOBIN: 14.23 G/DL
  LEUKOCYTE COUNT: 14.27 x10E3/uL
  LYMPHOCYTE: 91.33%
  MEAN CORPUSCULAR HEMOGLOBIN: 23.77 pg
  MEAN CORPUSCULAR HEMOGLOBIN CONCENTRATION: 37.97 G/DL
  MEAN CORPUSCULAR VOLUME: 62.57 fL
  MONOCYTE: 2%
  NEUTROPHIL: 5.67%
  NUCLEATED RED BLOOD CELLS: 0 /100WBC
  PLATELET COUNT: 1370 x10E3/uL
  ALANINE AMINOTRANSFERASE: 67 u/L
  ASPARTATE AMINOTRANSFERASE: 98.33 u/L
  BLOOD UREA NITROGEN: 20.33 mg/dL
  CARBON DIOXIDE: 23.67 mmol/L
  CHLORIDE: 100.67 MEQ/L
  CHOLESTEROL: 62.67 mg/dL
  CREATINE PHOSPHOKINASE: 423.33 u/L
  CREATININE: 0.18 mg/dL
  GLUCOSE: 127 mg/dL
  LACTATE DEHYDROGENASE: 617.67 u/L
  LIPASE: 9.33 u/L
  PHOSPHORUS: 11.33 mg/dL
  POTASSIUM: 6.92 MEQ/L
  SODIUM: 141.13 MEQ/L
  TOTAL BILIRUBIN: 0.17 mg/dL
  TOTAL PROTEIN: 5.83 G/DL
  URIC ACID: 1.87 mg/dL
120 h, time 5 day
  ABSOLUTE BASOPHIL: 0 CELLS/uL
  ABSOLUTE EOSINOPHIL: 174 CELLS/uL
  ABSOLUTE LYMPHOCYTE: 14815.33 CELLS/uL
  ABSOLUTE SEGMENTED NEUTROPHIL: 1394.67 CELLS/uL
  BASOPHIL: 0%
  EOSINOPHIL: 1%
  ERYTHROCYTE COUNT: 6.46 x10E6/uL
  HEMATOCRIT: 39.9%
  HEMOGLOBIN: 15.17 G/DL
  LEUKOCYTE COUNT: 17.07 x10E3/uL
  LYMPHOCYTE: 86.67%
  MEAN CORPUSCULAR HEMOGLOBIN: 23.47 pg
  MEAN CORPUSCULAR HEMOGLOBIN CONCENTRATION: 38.03 G/DL
  MEAN CORPUSCULAR VOLUME: 61.8 fL
  MONOCYTE: 4%
  NEUTROPHIL: 8.33%
  NUCLEATED RED BLOOD CELLS: 0.67 /100WBC
  PLATELET COUNT: 1286 x10E3/uL
  ALANINE AMINOTRANSFERASE: 89 u/L
  ASPARTATE AMINOTRANSFERASE: 125 u/L
  BLOOD UREA NITROGEN: 18.67 mg/dL
  CARBON DIOXIDE: 23.67 mmol/L
  CHLORIDE: 105 MEQ/L
  CHOLESTEROL: 67.33 mg/dL
  CREATINE PHOSPHOKINASE: 770 u/L
  CREATININE: 0.14 mg/dL
  GLUCOSE: 120 mg/dL
  LACTATE DEHYDROGENASE: 265.67 u/L
  LIPASE: 9.5 u/L
  PHOSPHORUS: 12.47 mg/dL
  POTASSIUM: 6.33 MEQ/L
  SODIUM: 149.25 MEQ/L
  TOTAL BILIRUBIN: 0.2 mg/dL
  TOTAL PROTEIN: 6.23 G/DL
  URIC ACID: 2.13 mg/dL
